Experimental data taken from patent US12352767B2, “Method of treating cognitive decline associated with neurological diseases based on a decrease in FLT4 expression or activity” (University of Virginia Patent Foundation, priority 2018, dated 2025).

System: Ly6GnegCD45+CD11b+ brain myeloid cells
Test: Single cell RNA-seq of brain myeloid cells (microglia) of WT and 5xFAD mice (Table 6, Table 7)
Format: in vivo
Parameters: key to Rel. Expr. 5xFAD Vis. + photo: HS-Q7 / Rel. Expr. 5xFAD Vis. + photo: Axl / Rel. Expr. 5xFAD Vis.: Ctdnep1 / Rel. Expr. 5xFAD Vis. + photo: Ctdnep1 / Rel. Expr. 5xFAD Vis.: Fabp5 / Rel. Expr. 5xFAD Vis. + photo: Fabp5 / Rel. Expr. 5xFAD Vis.: Nampt / Rel. Expr. 5xFAD Vis. + photo: Nampt / Rel. Expr. 5xFAD Vis. + photo: Tfdp1 / Rel. Expr. 5xFAD Vis. + photo: Hspb11 / Rel. Expr. 5xFAD Vis.: Tyrobp / Rel. Expr. 5xFAD Vis. + photo: Tyrobp / Rel. Expr. 5xFAD Vis. + photo: Tpt1 / Rel. Expr. 5xFAD Vis.: Fth1 / Rel. Expr. 5xFAD Vis. + photo: Fth1 / Rel. Expr. 5xFAD Vis. + photo: Eef1a1 / Rel. Expr. 5xFAD Vis.: Lgals3bp / Rel. Expr. 5xFAD Vis. + photo: Lgals3bp / Rel. Expr. 5xFAD Vis.: Ifitm3 / Rel. Expr. 5xFAD Vis. + photo: Ifitm3 / Rel. Expr. 5xFAD Vis.: Atp5h / Rel. Expr. 5xFAD Vis. + photo: Atp5h / Rel. Expr. 5xFAD Vis.: Fau / Rel. Expr. 5xFAD Vis. + photo: Fau / Rel. Expr. 5xFAD Vis.: Ftl1 / Rel. Expr. 5xFAD Vis. + photo: Ftl1 / Rel. Expr. 5xFAD Vis.: H2-K1 / Rel. Expr. 5xFAD Vis. + photo: H2-K1 / Rel. Expr. 5xFAD Vis. + photo: Tmsb4x / Rel. Expr. 5xFAD Vis. + photo: Uba52 / Rel. Expr. WT Vis.: Hexb / Rel. Expr. 5xFAD Vis.: Hexb / Rel. Expr. WT Vis.: Lgmn / Rel. Expr. 5xFAD Vis.: Lgmn / Rel. Expr. 5xFAD Vis. + photo: Rtp4 / Rel. Expr. 5xFAD Vis.: Lpl / Rel. Expr. 5xFAD Vis. + photo: Lpl: A “+” refers to relative upregulation of gene expression for the noted conditions; A “-” refers to relative downregulation of gene expression for the noted conditions
Description: Effects of meningeal ablation on gene expression were studied in 5×FAD mice. Single cell RNA-seq of brain myeloid cells from 4 months old wild type (WT) and 5×FAD mice were injected with Visudyne alone (Vis., functional meningeal lymphatics) or injected with Visudyne and subjected to transcranial photoconversion (Vis.+photo., ablated meningeal lymphatics). Meningeal lymphatic ablation step was performed twice within a span of 3 weeks and brain myeloid cells were isolated 3 weeks after the last step. Data were obtained from sorted live Ly6G^negCD45^+CD11b^+ brain myeloid cells pooled from 3 mice per group (FIGS. 14A-B). Unsupervised clustering of brain myeloid single cells using t-distributed Stochastic Neighbor Embedding (t-SNE) plotted by group (FIG. 14A) or by distinct cell cluster (FIG. 14B). Frequency of cells from each cluster within the total 354, 487 and 308 cells from WT Vis., 5×FAD Vis. and 5×FAD Vis.+photo. groups, respectively (FIG. 14C). Genes involved in the acquisition of the disease-associated microglia phenotype, depicting the homeostatic, TREM2-independent and TREM2-dependent signatures within each cell were depicted in a heatmap (FIG. 14D). Cells are grouped by cluster and genes are grouped by signature (FIG. 14D). Upset plots were generated for all cells (FIG. 14E) or cluster 1 cells (FIG. 14F) showing the overlap in differentially expressed genes for comparisons between 5×FAD Vis. or 5×FAD Vis.+photo. and WT Vis. […] Expression values are averaged across cells within each group. Normalized enrichment score for GSEA pathways were obtained by Fisher's exact test with Benjamini-Hochberg corrections for the 24 differentially expressed genes in cluster 1 is shown in FIG. 14H. Enrichment analysis was performed in R using the clusterProfiler package. Depicted in FIG. 14I is a heatmap showing the mean-centered average log normalized expression of each gene contributing to the core-enrichment of the “Lysosome” GSEA pathway. Expression values are averaged across cells within each group. All scales show mean-centered, log-normalized expression values.

[1] = 5xFAD mice, Visudyne + photoconversion, cluster 1 brain myeloid cells
[2] = 5xFAD mice, Visudyne alone, cluster 1 brain myeloid cells
[3] = WT mice, Visudyne alone, cluster 1 brain myeloid cells

## verteporfin [Visudyne]
[1]
  Rel. Expr. 5xFAD Vis. + photo: Atp5h: +
  Rel. Expr. 5xFAD Vis. + photo: Axl: +
  Rel. Expr. 5xFAD Vis. + photo: Ctdnep1: +
  Rel. Expr. 5xFAD Vis. + photo: Eef1a1: +
  Rel. Expr. 5xFAD Vis. + photo: Fabp5: +
  Rel. Expr. 5xFAD Vis. + photo: Fau: +
  Rel. Expr. 5xFAD Vis. + photo: Fth1: +
  Rel. Expr. 5xFAD Vis. + photo: Ftl1: +
  Rel. Expr. 5xFAD Vis. + photo: H2-K1: +
  Rel. Expr. 5xFAD Vis. + photo: HS-Q7: +
  Rel. Expr. 5xFAD Vis. + photo: Hspb11: +
  Rel. Expr. 5xFAD Vis. + photo: Ifitm3: +
  Rel. Expr. 5xFAD Vis. + photo: Lgals3bp: +
  Rel. Expr. 5xFAD Vis. + photo: Lpl: +
  Rel. Expr. 5xFAD Vis. + photo: Nampt: +
  Rel. Expr. 5xFAD Vis. + photo: Rtp4: +
  Rel. Expr. 5xFAD Vis. + photo: Tfdp1: +
  Rel. Expr. 5xFAD Vis. + photo: Tmsb4x: +
  Rel. Expr. 5xFAD Vis. + photo: Tpt1: +
  Rel. Expr. 5xFAD Vis. + photo: Tyrobp: +
  Rel. Expr. 5xFAD Vis. + photo: Uba52: +
[2]
  Rel. Expr. 5xFAD Vis.: Atp5h: +
  Rel. Expr. 5xFAD Vis.: Ctdnep1: +
  Rel. Expr. 5xFAD Vis.: Fabp5: +
  Rel. Expr. 5xFAD Vis.: Fau: +
  Rel. Expr. 5xFAD Vis.: Fth1: +
  Rel. Expr. 5xFAD Vis.: Ftl1: +
  Rel. Expr. 5xFAD Vis.: H2-K1: +
  Rel. Expr. 5xFAD Vis.: Hexb: +
  Rel. Expr. 5xFAD Vis.: Ifitm3: +
  Rel. Expr. 5xFAD Vis.: Lgals3bp: +
  Rel. Expr. 5xFAD Vis.: Lgmn: +
  Rel. Expr. 5xFAD Vis.: Lpl: +
  Rel. Expr. 5xFAD Vis.: Nampt: +
  Rel. Expr. 5xFAD Vis.: Tyrobp: +
5xFAD mice, Visudyne with photo ablation, brain myeloid cells
  expression of genes of the GSEA lysosome pathway (Table 7, FIG. 14I): relatively downregulated
Visudyne + photoconversion twice within 3 weeks
  expression of 24 genes (Table 6) in cluster 1 brain myeloid cells, 5xFAD Vis.+photo. vs WT Vis.: significantly different
Visudyne alone, no photoconversion
  expression of 24 genes (Table 6) in cluster 1 brain myeloid cells, 5xFAD Vis. vs WT Vis.: not significantly different
[3]
  Rel. Expr. WT Vis.: Hexb: +
  Rel. Expr. WT Vis.: Lgmn: +
